Active and inactive are the calls of the source. No cut-off for these calls is given here.

For experiment [1], the species on record is Ovis aries. Briefly: Displacement of [3H]YM-09151-2 from dopamine D2 receptor from sheep brain striatum membrane assessed as first protomer region in unoccupied dimer incubated for 2 hrs by radioligand based competition binding assay. Type of experiment: cell membranes. A general note: Loss of bound radioactivity is the signal in a displacement assay; it reports binding, not function.

Experiment [2] is filed under the species Ovis aries. Briefly: Displacement of [3H]- ZM 241 385 from A2A receptor from sheep brain striatum membrane assessed as first protomer region in the unoccupied dimer in presence of TM3-TAT peptide by radioligand based competition binding assay. Type of experiment: cell membranes.
For the next experiment, the system named is HEK293T. The experiment can be described thus: Stabilization of A2A/D2 receptor heterodimerization in human HEK-293T cells cotransfected with A2AR-Rluc and D2R-YFP at 100 nM assessed as increase in heteromer stabilization by measuring yellow fluorescent protein level by BRET assay relative to control. The experiment is classed as cell-based. (BRET reads energy transfer from a luciferase to a nearby fluorophore.)

Experiment [3] is filed under the species Ovis aries. The experiment can be described thus: Displacement of [3H]- ZM 241 385 from A2A receptor from sheep brain striatum membrane assessed as first protomer region in the unoccupied dimer incubated for 2 hrs by radioligand based competition binding assay. Type of experiment: cell membranes.
The species entered for experiment [4] is Ovis aries. The experiment can be described thus: Displacement of [3H]- ZM 241 385 from A2A receptor from sheep brain striatum membrane assessed as first protomer region in the unoccupied dimer in presence of TM5-TAT peptide by radioligand based competition binding assay. Type of experiment: cell membranes.
The test system of experiment [5] is CHO. The experiment can be described thus: Antagonist activity at chinese hamster A2A receptor expressed in CHO cells assessed as CGS 21 680 induced response at 10 nM and measured for 30 mins by dynamic mass redistribution by DMR assay. The experiment is classed as cell-based. The note with it: Cricetulus griseus, filed as antagonist.
Experiment [6] concerns CHO. The experiment can be described thus: Antagonist activity at chinese hamster D2 receptor expressed in CHO cells assessed as su-manirole induced response at 0.1 nM and measured for 30 mins by dynamic mass redistribution by DMR assay relative to control. The experiment is classed as cell-based. The conditions noted are these: Cricetulus griseus, filed as antagonist.

Turning to `COC(=O)CN(CC(=O)NCCOCCOCCOCCOCCOCCNC(C)=O)CC(=O)NCCOCCOCCOCCOCCOCCNC(=O)CCC(=O)Nc1ccc(CCN2CN(c3ccccc3)C3(CCN(CCCC(=O)c4ccc(F)cc4)CC3)C2=O)cc1`, the K in the experiment filed under Ovis aries [1] amounted to 0.5 nM.
Take `COC(=O)CN(CC(=O)NCCOCCOCCOCCOCCOCCNC(=O)CCC(=O)Nc1ccc(CCN2CN(c3ccccc3)C3(CCN(CCCC(=O)c4ccc(F)cc4)CC3)C2=O)cc1)CC(=O)NCCOCCOCCOCCOCCOCCNC(=O)COc1ccc(CCCn2ncc3c2nc(N)n2nc(-c4ccco4)nc32)cc1`: the K was found to be 1.7 nM in the experiment listed under Ovis aries [2], 0.13 nM in the experiment listed under Ovis aries [1], 2.1 nM in the experiment listed under Ovis aries [3] and 36 nM in the experiment filed under Ovis aries [4]. Also, the outcome in the experiment on HEK293T was Active. Moreover, the Activity entry in the experiment with CHO [5] and in the experiment with CHO [6] was “Antagonist” throughout.
Consider `COC(=O)CN(CC(=O)NCCOCCOCCNC(=O)CCC(=O)Nc1ccc(CCN2CN(c3ccccc3)C3(CCN(CCCC(=O)c4ccc(F)cc4)CC3)C2=O)cc1)CC(=O)NCCOCCOCCNC(=O)COc1ccc(CCCn2ncc3c2nc(N)n2nc(-c4ccco4)nc32)cc1`, for which, in the experiment with HEK293T, the result was Active.
Consider `Nc1nc2c(cnn2CCCc2ccc(OCC(=O)O)cc2)c2nc(-c3ccco3)nn12`, for which the Activity entry in the experiment on CHO [5] was “Antagonist”.
With `O=C(O)CCC(=O)Nc1ccc(CCN2CN(c3ccccc3)C3(CCN(CCCC(=O)c4ccc(F)cc4)CC3)C2=O)cc1`, the result with CHO [6] was Active.
`COC(=O)CN(CC(=O)NCCCOCCOCCOCCCNC(=O)CCC(=O)Nc1ccc(CCN2CN(c3ccccc3)C3(CCN(CCCC(=O)c4ccc(F)cc4)CC3)C2=O)cc1)CC(=O)NCCCOCCOCCOCCCNC(=O)COc1ccc(CCCn2ncc3c2nc(N)n2nc(-c4ccco4)nc32)cc1`: in the experiment on HEK293T, the result was Active. For the same compound, the Activity entry with CHO [5] and in the experiment on CHO [6] was “Antagonist” throughout.

The values are drawn from ChEMBL document CHEMBL5042516, “Heterobivalent Ligand for the Adenosine A2A-Dopamine D2 Receptor Heteromer” (J Med Chem, 2022).
